Source: patent US3965109A, “Certain aryl amino pyridines” (priority 1971, dated 1976)

Legend:
Aphis fabae = assay: Pest toxicity test; assay type: in vivo; conditions: 0.1% by weight; broad bean; 2 days
Rice = assay: Further herbicidal test, various rates; assay type: in vivo; conditions: 5 lb/acre; scale 0 to 5 (complete kill)
Kale = assay: Further herbicidal test, various rates; assay type: in vivo; conditions: 5 lb/acre; scale 0 to 5 (complete kill)
Sugar beet = assay: Further herbicidal test, various rates; assay type: in vivo; conditions: 5 lb/acre; scale 0 to 5 (complete kill)
Onion = assay: Further herbicidal test, various rates; assay type: in vivo; conditions: 5 lb/acre; scale 0 to 5 (complete kill)
Speedwell = assay: Selective herbicidal activity; assay type: in vivo, Veronica spp; conditions: 2 kg/hectare; 23 days; scale 0 to 5 (complete kill)
Description: (§1) This Example illustrates the selective herbicidal activity of compounds No. 5 and 12 of Table 1. The compounds, formulated as in Example 5 were sprayed on to pots of soil previously sown with seeds of the plant species shown in Tables 13 and 14.

Wheat [1] = assay: Herbicidal test, pre- and post-emergence; assay type: in vivo; conditions: 10 lb/acre (11.2 kg/ha); scale 0 (no effect) to 3 (complete kill)
Maize = assay: Herbicidal test, pre- and post-emergence; assay type: in vivo; conditions: 10 lb/acre (11.2 kg/ha); scale 0 (no effect) to 3 (complete kill)
Pea = assay: Further herbicidal test, various rates; assay type: in vivo; conditions: 5 lb/acre; scale 0 to 5 (complete kill)
Uncinula necator (vine) = assay: Fungicidal test against foliar disease D (foliage spray plus soil drench); assay type: in vivo; conditions: 100 ppm spray and drench; 10 days
Knotgrass = assay: Selective herbicidal activity; assay type: in vivo, Polygonum aviculare; conditions: 2 kg/hectare; 23 days; scale 0 to 5 (complete kill)
Description: as §1
(§2) Table 14 gives the results for compound No. 12 of Table 1 The figures are assessments of damage to the plants 23 days after treatment, on a scale of 0 to 5 where 0 is no effect and 5 is complete kill
Knotgrass Polygonum aviculare

Corn Marigold = assay: Selective herbicidal activity; assay type: in vivo, Chrysanthemum segetum; conditions: 2 kg/hectare; 23 days; scale 0 to 5 (complete kill)
Description: as §1, §2
Corn marigold Chrysanthemum segetum

Oat = assay: Further herbicidal test, various rates; assay type: in vivo; conditions: 5 lb/acre; scale 0 to 5 (complete kill)
Carrot = assay: Further herbicidal test, various rates; assay type: in vivo; conditions: 5 lb/acre; scale 0 to 5 (complete kill)
[2] = test system: Tetranychus telarius (red spider mites, adults); assay: Pest toxicity test; assay type: in vivo; conditions: 0.1% by weight; French bean; 3 days
[3] = test system: Aedes aegypti (mosquito larvae); assay: Pest toxicity test; assay type: in vivo; conditions: 0.01% by weight; water; 1 day
Lettuce = assay: Herbicidal test, pre- and post-emergence; assay type: in vivo; conditions: 10 lb/acre (11.2 kg/ha); scale 0 (no effect) to 3 (complete kill)
[4] = test system: Phaedon cochleariae (mustard beetles); assay: Pest toxicity test; assay type: in vivo; conditions: in vivo
[5] = test system: Musca domestica (houseflies); assay: Pest toxicity test, contact test; assay type: in vivo; conditions: 0.1% by weight; milk/sugar; 2 days; flies sprayed directly
[6] = test system: Pieris brassicae (cabbage white caterpillars); assay: Pest toxicity test; assay type: in vivo; conditions: 0.1% by weight, 2 days
Mayweed = assay: Selective herbicidal activity; assay type: in vivo, Tripleurospermum maritimum ssp. inodorum; conditions: 2 kg/hectare; 23 days; scale 0 to 5 (complete kill)
Description: as §1
Mayweed Tripleurospermum maritimum

Megoura viceae = assay: Pest toxicity test; assay type: in vivo; conditions: 0.1% by weight; broad bean; 2 days
Wheat [7] = assay: Selective herbicidal activity; assay type: in vivo
Description: as §1, §2

Barley [8] = assay: Selective herbicidal activity; assay type: in vivo
Description: as §1, §2

broadleaved plants = assay: Selective herbicidal activity; assay type: in vivo; conditions: Tables 13 and 14
Description: as §1, §2

Barley [9] = assay: Further herbicidal test, various rates; assay type: in vivo; conditions: 5 lb/acre; scale 0 to 5 (complete kill)
Tomato = assay: Herbicidal test, pre- and post-emergence; assay type: in vivo; conditions: 10 lb/acre (11.2 kg/ha); scale 0 (no effect) to 3 (complete kill)
[10] = test system: Piricularia oryzae (rice); assay type: in vivo; conditions: 100 ppm spray and drench; 7 days
[11] = test system: Plasmopara viticola (vine); assay: Fungicidal test against foliar disease C (foliage spray plus soil drench); assay type: in vivo; conditions: 100 ppm spray and drench; 10 days
[12] = test system: Tetranychus telarius (red spider mites, eggs); assay: Pest toxicity test; assay type: in vivo; conditions: 0.1% by weight; French bean; 3 days
[13] = test system: Puccinia recondita (wheat); assay: Fungicidal test against foliar disease A (foliage spray plus soil drench); assay type: in vivo; conditions: 100 ppm spray and drench; 10 days
[14] = test system: Plutella maculipennis (diamond back moth larvae); assay: Pest toxicity test; assay type: in vivo; conditions: in vivo
Redshank = assay: Selective herbicidal activity; assay type: in vivo, Polygonum persicaria; conditions: 2 kg/hectare; 23 days; scale 0 to 5 (complete kill)
Description: as §1
Redshank Polygonum persicaria

[15] = test system: Agriolimax reticulatus (slugs); assay: Molluscicidal activity test; assay type: in vivo, Agriolimax reticulatus (Mull); conditions: pellet with 4% by weight; 6 days; 10°C
Summary of the method: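 Slugs were starved for 24 hours, then housed two per dish, in duplicate, under high humidity at 10°C. They fed on pellets dried to contain 4% w/w of test compound. Mortality was scored on day 6.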

[16] = test system: Aedes aegypti (mosquito adults); assay: Pest toxicity test; assay type: in vivo; conditions: 0.01% by weight; plywood; 1 day
[17] = 2 kg/hectare, 23 days, scale 0 to 5 (complete kill)

## O=[N+]([O-])c1c(F)c(F)c(Nc2c(Cl)c(F)nc(F)c2Cl)c(F)c1F [Compound 12, 3,5-Dichloro-2,6-difluoro-4(4-nitro 2,3,5,6-tetrafluoroanilino) pyridine]
Aphis fabae
  Mortality grading (kill): 3 (3 represents over 90% kill)
Rice
  Damage to plants, post-emergence: 0
Kale
  Damage to plants, post-emergence: 5
  Damage to plants, pre-emergence: 4
Sugar beet
  Damage to plants, post-emergence: 5
  Damage to plants, pre-emergence: 4
Onion
  Damage to plants, post-emergence: 0
Speedwell
  Damage to plants: 0
Wheat [1]
  Damage to plants, post-emergence: 0
  Damage to plants, pre-emergence: 3
Maize
  Damage to plants, post-emergence: 1
  Damage to plants, pre-emergence: 3
Pea
  Damage to plants, post-emergence: 1
  Damage to plants, pre-emergence: 3
Uncinula necator (vine)
  Amount of disease grading, disease D: 3 (0 to 5)
Knotgrass
  Damage to plants: 4
Corn Marigold
  Damage to plants: 3.5
Oat
  Damage to plants, post-emergence: 0
  Damage to plants, pre-emergence: 0
Carrot
  Damage to plants, post-emergence: 5
  Damage to plants, pre-emergence: 4
[2]
  Mortality grading (kill): 3 (3 represents over 90% kill)
[3]
  Mortality grading (kill): 3 (3 represents over 90% kill)
Lettuce
  Damage to plants, post-emergence: 3
  Damage to plants, pre-emergence: 3
[4]
  Mortality grading (kill): 0 (key: O represents less than 30% kill; 1 represents 30 - 49% kill; 2 represents 60 - 90% kill; 3 represents over 90% kill; C indicates a chemosterilant effect.; A indicates an antifeeding effect.)
[5]
  Mortality grading (kill), contact test: 2 (2 represents 60 - 90% kill)
[6]
  Mortality grading (kill): 0 (O represents less than 30% kill)
Mayweed
  Damage to plants: 5
Megoura viceae
  Mortality grading (kill): 3 (3 represents over 90% kill)
Wheat [7]; [17]
  Damage to plants: 0
Wheat [7]; Tables 13 and 14
  damage to wheat (in words): undamaged
Barley [8]; [17]
  Damage to plants: 1
Barley [8]; Tables 13 and 14
  damage to barley (in words): undamaged
Broadleaved plants
  damage to the broadleaved plants (in words): caused damage to the broadleaved plants
Barley [9]
  Damage to plants, post-emergence: 2
Tomato
  Damage to plants, post-emergence: 3
  Damage to plants, pre-emergence: 3
[10]
  Amount of disease grading, disease E: 0 (61 to 100)
[11]
  Amount of disease grading, disease C: 3 (0 to 5)
[12]
  Mortality grading (kill): 3 (3 represents over 90% kill)
[13]
  Amount of disease grading, disease A: 2 (6 to 25)
[14]
  Mortality grading (kill): 0 (key: O represents less than 30% kill; 1 represents 30 - 49% kill; 2 represents 60 - 90% kill; 3 represents over 90% kill; C indicates a chemosterilant effect.; A indicates an antifeeding effect.)
Redshank
  Damage to plants: 5
[15]
  % Kill of slugs: 50%
[16]
  Mortality grading (kill): 0 (O represents less than 30% kill)
